This note sets out measurements from patent US20200261421A1, “HETEROCYCLIC COMPOUNDS AS HIV PROTEASE INHIBITORS” (Merck Sharp & Dohme Corp., priority 2016, published 2020).

The target of the assay is T1, wild-type HIV-1 protease (Human immunodeficiency virus type 1 group M subtype B, UniProt P04585).
T1 construct: Escherichia coli expressed wild-type HIV-1 protease protein; made in house; host or cells: Escherichia coli
Briefly: Assay for Inhibition of Microbial Expressed HIV Protease. It counts as biochemical. Conditions: Escherichia coli expressed wild-type HIV-1 protease, peptide substrate cleavage; mean of at least two independent experiments. Put shortly:
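E. coli-expressed wild-type HIV-1 protease (20 pM) was preincubated with inhibitor for 30 min at room temperature in 50 mM sodium acetate pH 5.5, 100 mM NaCl, 0.1% BSA. It was then reacted with 400 μM peptide substrate for 1 h at 30 °C. Cleavage product was quantified by LC-MS/MS, and IC50 is the mean of at least two experiments.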

Broadly, the IC50 is the concentration that inhibits the measured activity by half. Low readings indicate greater potency in that assay, high ones weaker potency in that assay. Take `CN(Cc1ccc(Cl)cn1)C(=O)c1cccc(CN2C(=N)NC(c3ccc(F)cc3)(c3ccc(F)cc3)C2=O)c1` [Example 21, 3-{[4,4-bis(4-fluorophenyl)-2-imino-5-oxoimidazolidin-1-yl]methyl}-N-[(5-chloropyridin-2-yl)methyl]-N-methylbenzamide]: the midpoint of inhibition, the IC50, lay at 12.7 nM.

Consider `N=C1NC(c2ccccc2)(c2ccccc2)C(=O)N1Cc1ccc(C(F)(F)F)c(C(=O)NCc2ccccc2OC(F)F)c1` [Example 7, N-[2-(difluoromethoxy)benzyl]-5-[(2-imino-5-oxo-4,4-diphenylimidazolidin-1-yl)methyl]-2-(trifluoromethyl)benzamide], for which the IC50 was found to be 52.4 nM.

On to `Cc1cc(CN2C(=N)NC(c3ccc(F)cc3)(c3ccc(F)cc3)C2=O)cc(C(=O)N(C)Cc2ccc(F)cc2)n1` [Example 93, 4-{[4,4-bis(4-fluorophenyl)-2-imino-5-oxoimidazolidin-1-yl]methyl}-N-(4-fluorobenzyl)-N,6-dimethylpyridine-2-carboxamide], for which it took 32.6 nM to reach half-maximal inhibition (IC50).

Turning to `C[C@H](c1ccc(Cl)cc1)N(C)C(=O)c1cccc(CN2C(=N)NC(c3ccc(F)cc3)(c3ccc(F)cc3)C2=O)c1` [Example 41, 3-{[4,4-bis(4-fluorophenyl)-2-imino-5-oxoimidazolidin-1-yl]methyl}-N-[(1R)-1-(4-chlorophenyl)ethyl]-N-methylbenzamide], inhibition was half-maximal at 26.5 nM (IC50).

`CC(C)CCC1(c2ccccc2)NC(=N)N(Cc2cccc(C(=O)N(C)[C@H](C)c3ccc(F)cc3)c2)C1=O` (stereo partly drawn) [Example 24, N-[(1R)-1-(4-fluorophenyl)ethyl]-3-{[2-imino-4-(3-methylbutyl)-5-oxo-4-phenylimidazolidin-1-yl]methyl}-N-methylbenzamide] registered an IC50 of 13.2 nM.

For the compound `CN(C)C(=O)c1cccc(CN2C(=N)NC(c3ccccc3)(c3cccc(-c4ccco4)c3)C2=O)c1` (stereo not drawn) [Example 56, 3-{[4-(3-furan-2-ylphenyl)-2-imino-5-oxo-4-phenylimidazolidin-1-yl]methyl}-N,N-dimethylbenzamide], the IC50 was 56.3 nM.

`CN(Cc1ccc(Cl)cc1)C(=O)c1ccnc(CN2C(=N)NC(c3ccccc3)(c3ccccc3)C2=O)c1` [Example 86, N-(4-chlorobenzyl)-2-[(2-imino-5-oxo-4,4-diphenylimidazolidin-1-yl)methyl]-N-methylpyridine-4-carboxamide] displayed a concentration for half-maximal inhibition (IC50) of 7.72 nM.

Compound `CN(Cc1ccc(C#N)cc1)C(=O)c1cccc(CN2C(=N)NC(c3ccc(F)cc3)(c3ccc(F)cc3)C2=O)c1` [Example 13, 3-{[4,4-bis(4-fluorophenyl)-2-imino-5-oxoimidazolidin-1-yl]methyl}-N-(4-cyanobenzyl)-N-methylbenzamide] returned a 50% inhibitory concentration (IC50) of 6.69 nM.

On to `CC(C)CC1(c2ccccc2)NC(=N)N(Cc2ccc(C(F)(F)F)c(C(=O)NCc3ncccn3)c2)C1=O` (stereo not drawn) [Example 11, 5-{[2-imino-4-(2-methylpropyl)-5-oxo-4-phenylimidazolidin-1-yl]methyl}-N-(pyrimidin-2-ylmethyl)-2-(trifluoromethyl)-benzamide], for which 92.1 nM corresponded to half-maximal inhibition (IC50).

The compound `CC(C)C[C@]1(c2ccccc2)NC(=N)N([C@H](C)c2cccc(C(=O)N(C)Cc3ccc(F)cc3)c2)C1=O` [Example 33, N-(4-fluorobenzyl)-3-((R)-1-((R)-2-imino-4-isobutyl-5-oxo-4-phenylimidazolidin-1-yl)ethyl)-N-methylbenzamide] gave a concentration for half-maximal inhibition (IC50) of 19.8 nM.

Consider `CC(C)CC1(c2ccccc2)NC(=N)N(Cc2cccc(C(=O)N(C)Cc3ccc(Cl)cc3)c2)C1=O` (stereo not drawn) [Example 25, N-(4-chlorobenzyl)-3-{[2-imino-4-(2-methylpropyl)-5-oxo-4-phenylimidazolidin-1-yl]methyl}-N-methylbenzamide], for which 13.8 nM corresponded to half-maximal inhibition (IC50).

With `CC(C)CCC1(c2ccc(F)cc2)NC(=N)N(Cc2cccc(C(=O)N(C)Cc3ccc(Cl)cc3)c2)C1=O` (stereo not drawn) [Example 22, N-(4-chlorobenzyl)-3-{[4-(4-fluorophenyl)-2-imino-4-(3-methylbutyl)-5-oxoimidazolidin-1-yl]methyl}-N-methylbenzamide], the IC50 came out at 12.9 nM.

In turn, `CN(C)C(=O)c1cccc(CN2C(=N)NC(c3ccc(F)cc3)(c3cccc(-c4cccc(C#N)c4)c3)C2=O)c1` (stereo not drawn) [Example 58, 3-{[4-(3'-cyanobiphenyl-3-yl)-4-(4-fluorophenyl)-2-imino-5-oxoimidazolidin-1-yl]methyl}-N,N-dimethylbenzamide] returned an IC50 of 63.4 nM.

As to `CN(C)C(=O)c1cccc(CN2C(=N)NC(c3ccc(F)cc3)(c3cccc(Br)c3)C2=O)c1` (stereo not drawn) [Example 53, 3-{[4-(3-bromophenyl)-4-(4-fluorophenyl)-2-imino-5-oxoimidazolidin-1-yl]methyl}-N,N-dimethylbenzamide], the IC50 amounted to 48.6 nM.

The compound `CN(Cc1ccccc1F)C(=O)c1cccc(CN2C(=N)NC(c3ccc(F)cc3)(c3ccc(F)cc3)C2=O)c1` [Example 65, 3-{[4,4-bis(4-fluorophenyl)-2-imino-5-oxoimidazolidin-1-yl]methyl}-N-(2-fluorobenzyl)-N-methylbenzamide] registered an IC50 of 89.9 nM.

Consider `CC(C)CC1(c2ccccc2)NC(=N)N(Cc2ccc(Cl)c(C(=O)N[C@H](C)c3ccc(F)cc3)c2)C1=O` (stereo partly drawn) [Example 76, 2-chloro-N-[(1R)-1-(4-fluorophenyl)ethyl]-5-{[2-imino-4-(2-methylpropyl)-5-oxo-4-phenylimidazolidin-1-yl]methyl}benzamide], for which the IC50 was determined as 40.1 nM.

The compound `CN(Cc1ccc(Cl)cc1)C(=O)c1cccc(CN2C(=N)NC(c3ccc(F)cc3)(c3cccc(-c4cccc(C#N)c4)c3)C2=O)c1` (stereo not drawn) [Example 64, N-(4-chlorobenzyl)-3-{[4-(3'-cyanobiphenyl-3-yl)-4-(4-fluorophenyl)-2-imino-5-oxoimidazolidin-1-yl]methyl}-N-methylbenzamide] gave a concentration for half-maximal inhibition (IC50) of 86.9 nM. This IC50 lies about 2.2-fold higher than the previous one.

On to `CN(Cc1ccnc(Cl)c1)C(=O)c1cccc(CN2C(=N)NC(c3ccc(F)cc3)(c3ccc(F)cc3)C2=O)c1` [Example 38, 3-{[4,4-bis(4-fluorophenyl)-2-imino-5-oxoimidazolidin-1-yl]methyl}-N-[(2-chloropyridin-4-yl)methyl]-N-methylbenzamide], for which the midpoint of inhibition, the IC50, lay at 23.8 nM.
